Reference: patent publication US4493837A, “Theobromine derivatives” (Eisai Co., Ltd., priority 1979, dated 1985)

Legend:
[1] = system: femoral artery blood flow; experiment: Blood flow-increasing action (average femoral artery blood flow after intraarterial injection, relative to papaverine); format: in vivo, mongrel dogs; conditions: anesthetized dogs, dose 0.03, 0.003 or 0.0003 mg/kg, papaverine 0.03 mg/kg = 1.00
Method: The blood flow at a femoral artery is measured by each of four male and female mongrel dogs weighing from 10 to 14 kg. That is, each subject is anesthetized by injecting intravenously 30 mg/kg of pentobarbital and one side femoral artery is exposed. A probe (2.5 mm diameter) of a magnetic blood flow meter (Model MF-26, a product of Nihon-Koden K.K.) is fitted to this artery and a catheter is inserted into and fixed to a side branch of this femoral artery. Intraarterial injection of 0.1 ml of the sample is then made and the average blood flow is measured. The dose of the sample is 0.03 mg/kg. When the blood flow-increasing action is strong, the dose is made 0.003 mg/kg and when the blood flow-increasing action is even stronger, it is made 0.0003 mg/kg in order to conduct the experiments. […] The numerical values in Table 1 represent the relative values of the compounds of this invention when the height of the blood flow-increase curve obtained by administration of 0.03 mg/kg papaverine is arbitrarily assigned the value 1.00. In other words, these values represent the ratio of the efficacy of the compounds of this invention relative to the activity of papaverine, with the latter being assigned the value 1.

[2] = system: phenylquinone-induced writhing in mice; experiment: Analgesic action: anti-writhing activity in mice (phenylquinone); format: in vivo; conditions: 4 mice
Method: The analgesic action of the compounds of the present invention was examined by the following experiment, using the writhing method disclosed in E. Siegmund et al; Proc. Soc. Exp. Biol. & Med., Vol. 95, 729 (1957).
Thirty minutes after subcutaneous injection of the compounds of the present invention, 2 mg/kg of phenylquinone was injected intraperitoneally to the mice. And 5 minutes later, the total number of writhes was counted for 4 minutes. Four mice were used for each dose level.

[3] = system: grooming behavior in mice; experiment: Inhibition of grooming behavior in mice; format: in vivo; conditions: for Number of grooming responses: 20-minutes count, 10 mice
Method: The grooming behavior-inhibiting action of the compounds of the present invention was examined by the following experiments, using the method disclosed in O. Rohte; Psychopharmacologia, Vol. 14, 18-22 (1969).
In this experiment, each sample (the compounds of the present invention, and chlorpromazine and diazepam as control medicines) was prepared in a form of 5% arabic gum suspension of 0.1 ml/10 g body weight of the animal.
Forty minutes after oral administration of each sample, the oily ink was painted on each mouse. And 10 minutes later, the number of grooming responses was counted for a 20-minutes period. A 5% arabic gum solution alone was administered to the control group.

[4] = system: fighting behavior in mice; experiment: Inhibition of the fighting behavior in mice; format: in vivo; conditions: for No. of fighting episodes: one hour after administration, 10 experiments
Excerpt: The anti-fighting action was examined in the following experiment, using the method disclosed in Ralph E. Tedeshi et al, Journal of Pharmacology and Experimental Therapeutics, Vol. 125, 28-34 (1959).
A pair of mice was placed in a plastic cage (16×10×18 cm) with the grid floor and applied electrical shocks (3 mA, 5 Hz, 50 msec.) during a 3-minutes period to their feet to induce the fighting behavior between the mice.
In this experiment, each sample (the compounds of the present invention, and chlorpromazine and diazepam as control medicines) was prepared in a form of a 5% arabic gum suspension and was orally administered to the mice. One hour after oral administration, the fighting behavior was observed. A 5% arabic gum solution was administered to the control group. Ten pairs of mice were used for each dose level.

## COc1ccccc1N1CCN(CCCCCCn2c(=O)c3c(ncn3C)n(C)c2=O)CC1
[1]
  Specific activity (blood flow increase relative to papaverine = 1): 404

## Cn1cnc2c1c(=O)n(CCCCCN1CCN(c3ccccc3)CC1)c(=O)n2C
[1]
  Specific activity (blood flow increase relative to papaverine = 1): 247

## COc1ccccc1N1CCN(CCCn2c(=O)c3c(ncn3C)n(C)c2=O)CC1
[1]
  Specific activity (blood flow increase relative to papaverine = 1): 143

## COc1ccccc1N1CCN(CCn2c(=O)c3c(ncn3C)n(C)c2=O)CC1
[1]
  Specific activity (blood flow increase relative to papaverine = 1): 95

## Cc1cccc(C)c1N1CCN(CCCCn2c(=O)c3c(ncn3C)n(C)c2=O)CC1
[2]; 2.5 mg/kg s.c.
  % Inhibition (writhing): 0%
[2]; 5.0 mg/kg s.c.
  % Inhibition (writhing): 53%
[2]; 10.0 mg/kg s.c.
  % Inhibition (writhing): 77%
[2]; 25.0 mg/kg s.c.
  % Inhibition (writhing): 85%

## Cn1cnc2c1c(=O)n(CCCCCN1CCN(c3ccccc3Cl)CC1)c(=O)n2C
[2]; 1.0 mg/kg s.c.
  % Inhibition (writhing): 0%
[2]; 2.5 mg/kg s.c.
  % Inhibition (writhing): 56%
[2]; 5.0 mg/kg s.c.
  % Inhibition (writhing): 87%
[2]; 10.0 mg/kg s.c.
  % Inhibition (writhing): 100%

## Cn1cnc2c1c(=O)n(CCCCCCN1CCN(c3ccccc3Cl)CC1)c(=O)n2C
[2]; 0.25 mg/kg s.c.
  % Inhibition (writhing): 10%
[2]; 0.5 mg/kg s.c.
  % Inhibition (writhing): 70%
[2]; 1.0 mg/kg s.c.
  % Inhibition (writhing): 80%
[2]; 2.5 mg/kg s.c.
  % Inhibition (writhing): 90%
[2]; 5.0 mg/kg s.c.
  % Inhibition (writhing): 100%

## COc1ccc(Cc2nccc3cc(OC)c(OC)cc23)cc1OC [Papaverine, reference compound]
[1]
  Specific activity (blood flow increase relative to papaverine = 1): 1

## CN(C)CCCN1c2ccccc2Sc2ccc(Cl)cc21 [chlorpromazine, reference compound]
[3]; 0.625 mg/kg P.O.
  % Inhibition (grooming responses): 30%
  Number of grooming responses: 21.4 ± 4.3
[3]; 2.5 mg/kg P.O.
  % Inhibition (grooming responses): 91%
  Number of grooming responses: 2.9 ± 2.9
[3]; 10 mg/kg P.O.
  % Inhibition (grooming responses): 61%
  Number of grooming responses: 5.8 ± 5.8
[3]; 40 mg/kg P.O.
  % Inhibition (grooming responses): 80%
  Number of grooming responses: 5.9 ± 5.9
[4]; 0.625 mg/kg P.O.
  % Inhibition (fighting episodes): 30%
  No. of fighting episodes: 3.9 ± 0.8
[4]; 2.5 mg/kg P.O.
  % Inhibition (fighting episodes): 45%
  No. of fighting episodes: 3.1 ± 1.0

## CN1C(=O)CN=C(c2ccccc2)c2cc(Cl)ccc21 [diazepam, reference compound]
[3]; 0.625 mg/kg P.O.
  % Inhibition (grooming responses): 53%
  Number of grooming responses: 14.3 ± 4.2
[3]; 2.5 mg/kg P.O.
  % Inhibition (grooming responses): 68%
  Number of grooming responses: 9.5 ± 5.2
[3]; 10 mg/kg P.O.
  % Inhibition (grooming responses): 75%
  Number of grooming responses: 7.6 ± 3.2
[4]; 0.625 mg/kg P.O.
  % Inhibition (fighting episodes): 29%
  No. of fighting episodes: 4.0 ± 1.0
[4]; 1.25 mg/kg P.O.
  % Inhibition (fighting episodes): 63%
  No. of fighting episodes: 2.1 ± 0.9

## Cn1cnc2c1c(=O)n(CCCCN1CCN(c3cccc(C(F)(F)F)c3)CC1)c(=O)n2C [drawing 17]
[3]; 0.625 mg/kg P.O.
  % Inhibition (grooming responses): 49%
  Number of grooming responses: 15.5 ± 5.8
[3]; 2.5 mg/kg P.O.
  % Inhibition (grooming responses): 46%
  Number of grooming responses: 16.5 ± 5.9
[3]; 10 mg/kg P.O.
  % Inhibition (grooming responses): 95%
  Number of grooming responses: 1.6 ± 1.6
[3]; 40 mg/kg P.O.
  % Inhibition (grooming responses): 100%
  Number of grooming responses: 0

## COc1ccccc1N1CCN(CCCCn2c(=O)c3c(ncn3C)n(C)c2=O)CC1 [drawing 18]
[3]; 0.625 mg/kg P.O.
  % Inhibition (grooming responses): 23%
  Number of grooming responses: 23.4 ± 6.1
[3]; 2.5 mg/kg P.O.
  % Inhibition (grooming responses): 49%
  Number of grooming responses: 15.6 ± 4.5
[3]; 10 mg/kg P.O.
  % Inhibition (grooming responses): 68%
  Number of grooming responses: 9.5 ± 4.1
[3]; 40 mg/kg P.O.
  % Inhibition (grooming responses): 100%
  Number of grooming responses: 0

## Cn1cnc2c1c(=O)n(CCCCN1CCN(c3cccc(C(F)(F)F)c3)CC1)c(=O)n2C [drawing 19]
[4]; 0.625 mg/kg P.O.
  % Inhibition (fighting episodes): 25%
  No. of fighting episodes: 4.2 ± 0.7
[4]; 2.5 mg/kg P.O.
  % Inhibition (fighting episodes): 81%
  No. of fighting episodes: 1.0

## COc1ccccc1N1CCN(CCCCn2c(=O)c3c(ncn3C)n(C)c2=O)CC1 [drawing 20]
[4]; 0.625 mg/kg P.O.
  % Inhibition (fighting episodes): 41%
  No. of fighting episodes: 3.3 ± 0.7
[4]; 2.5 mg/kg P.O.
  % Inhibition (fighting episodes): 71%
  No. of fighting episodes: 1.6
